# Test results: patent publication US20200352913A1, “NEW METHOD FOR TREATING DENGUE VIRUS INFECTION” (INSERM (INSTITUT NATIONAL DE LA SANTÉ ET DE LA RECHERCHE …, priority 2017, published 2020)
# Entries after “also recorded” stand apart in the source; their conditions may differ.
# Experiments:
# DENV2_16681 [1] = details: Diamond et al., 2002; targets de novo purine biosynthesis pathway; cited from earlier work
# DENV2_16681 [2] = assay: DENV infection of human primary skin fibroblasts (FIG. 2E); type: cell-based, Dengue virus; details: DENV2_16681 MOI 5, 24h post infection
# Procedure: (§1) FIG. 2. […] (A) HeLa cells were pre-incubated for 24h with increased concentration of NGI-1, or for 3h with MPA prior infection with DENV2_16681 (MOI 5). MPA, Mycophenolic acid. (B) Replication kinetics of DENV2 in HeLa replicon cells challenged with NGI-1 (2 μM) or MPA (10 μM) along the experiment duration. (C) Supernatants from HEK-293T cells transfected with FLAG-NS plasmids, were subjected to ELISA to quantify secreted NS1. (D) HeLa cells were incubated for 24 hours with NGI-1 and challenged in continuous presence of the drug with DENV1 (MOI 1), DENV2_16681 (MOI 5), DENV2_JAM (MOI 5), DENV3_THAI (MOI 5), WNV (MOI 1), ZIKV (MOI 1), CHIKV (MOI 5) or HSV (MOI 0.3). (E) Similarly treated primary skin fibroblast and monocyte derived dendritic cells (MDDC) were challenged with DENV2_16681 (MOI 5) and ZIKV_HD78788 (MOI 2). (D and E) The levels of infected cells were assessed 24h post infection by flow cytometry using respective anti-viral antibodies. (A-E) Data shown are means±SD of two independent experiments. Significance was calculated using a one-way ANOVA statistical test with a Dunnett's multiple (A, B and C) or Tukey comparison test (D and E). (n.s., not significant; **p<0.001; […]).
# [3] = data not shown
# Excerpt: (§2) The OST complex is known to be required for flavivirus infection through mechanisms that are poorly understood (Marceau et al., 2016; Savidis et al., 2016; Zhang et al., 2016). In mammalians, there are two OST complexes, each composed of a catalytic subunit isoform (STT3A or STT3B) associated with a set of shared subunits (RPN1, RPN2, DDOST, DAD1 and OST4) (Cherepanova et al., 2016). Their main function is to transfer a preassembled oligosaccharide to selected asparagine residues within the consensus sequence asparagine-X-serine/threonine (Cherepanova et al., 2016). […] To test whether the OST complex contributes to NS1 or NS4B N-glycosylation, we transfected HEK-293T cells with a siRNA pool targeting RPN1, DDOST, STT3A or STT3B. […] We then examined the effect of NGI-1, a recently discovered N-linked glycosylation inhibitor that directly and reversibly interacts with the OST catalytic subunits (Lopez-Sambrooks et al., 2016). […] To pinpoint the effect of hypoglycosylation on NS1 stability, we transfected HEK-293T cells with plasmids encoding FLAG-NS1 WT or mutants lacking the first (N130Q), the second (N207Q), or both N-linked glycosylation sites (N130Q/N207Q) (data not shown).
# [4] = system: DENV1, DENV2_16681, DENV2_JAM, DENV3_THAI; assay: Infection of HeLa cells by DENV serotypes, flow cytometry (FIG. 2D); type: cell-based, Dengue virus; details: 24 h pre-incubation, continuous drug, 24h post infection
# Procedure: as §1
# WNV = assay: Infection of HeLa cells by WNV, flow cytometry (FIG. 2D); type: cell-based, West Nile virus; details: MOI 1, 24h post infection
# Procedure: as §1
# DENV NS1 glycosylation = DENV NS1 glycosylation under NGI-1 (immunoblot, data not shown); type: cell-based; details: dose dependent
# Excerpt: as §2
# HSV = assay: Infection of HeLa cells by HSV, flow cytometry (FIG. 2D); type: cell-based; details: MOI 0.3, 24h post infection
# Procedure: as §1
# [5] = system: DENV2 replicon (vRNA amplification); assay: Replication kinetics of DENV2 in HeLa replicon cells (FIG. 2B); type: cell-based, Dengue virus; details: NGI-1 2 μM
# Procedure: as §1
# (§3) The OST complex is known to be required for flavivirus infection through mechanisms that are poorly understood (Marceau et al., 2016; Savidis et al., 2016; Zhang et al., 2016). […]
# ZIKV NS1 glycosylation = ZIKV NS1 glycosylation under NGI-1 (immunoblot, data not shown); type: cell-based; details: dose dependent
# Excerpt: as §2
# DENV2_16681 [6] = assay: DENV infection of monocyte-derived dendritic cells (FIG. 2E); type: cell-based, Dengue virus; details: DENV2_16681 MOI 5, 24h post infection
# Procedure: as §1
# DENV2_16681 [7] = assay: DENV infection of HeLa cells pre-incubated with drug (FIG. 2A); type: cell-based, Dengue virus
# Procedure: as §1, §3
# Cell proliferation = Cell proliferation over time (FIG. 3); type: cell-based; details: NGI-1 2 μM, measured over time, RLU
# Procedure: FIG. 3. Cell proliferation is not affected by NGI-1. Cell proliferation is measured over time after incubation with NGI-1 (2 μM), MPA (10 μM) or respective mock control. Data shown are means±S.D. of one representative experiment of three replicates. RLU, relative light units.
# secreted NS1 = assay: ELISA of secreted NS1 in supernatants (FIG. 2C); type: cell-based, DENV
# Procedure: as §1, §3
SMILES,DENV replication inhibition (literature) (DENV2_16681 [1]),DENV infection of human primary skin fibroblasts (DENV2_16681 [2]),cytotoxicity [3],infection by the four DENV serotypes [4],infection by WNV (WNV),DENV NS1 glycosylation (DENV NS1 glycosylation),infection by HSV (HSV),vRNA amplification [5],ZIKV NS1 glycosylation (ZIKV NS1 glycosylation),DENV infection of monocyte-derived dendritic cells (DENV2_16681 [6]),"antiviral activity compared with MPA (DENV2_16681 [7]; FIGS. 2A and B, NGI-1 2 μM, MPA 10 μM in replicon cells)","DENV infection (DENV2_16681 [7]; HeLa cells, 24h pre-incubation with increased concentration of NGI-1, DENV2_16681 MOI 5, dose dependent)",cell proliferation / antiproliferative effects (Cell proliferation),NS1 secretion (secreted NS1)
"COc1c(C)c2c(c(O)c1C/C=C(\C)CCC(=O)O)C(=O)OC2 [MPA, mycophenolic acid]",a well-known DENV replication inhibitor,–,–,–,–,–,–,–,–,–,–,–,–,–
Cc1cnc(NC(=O)c2cc(S(=O)(=O)N(C)C)ccc2N2CCCC2)s1 [NGI-1],–,significantly reduced,without any significant cytotoxicity,blocked,blocked,strongly impaired,not,blocked,strongly impaired,significantly reduced,comparable to mycophenolic acid,significantly inhibited,not affected; also recorded: without any significant cytotoxicity (data not shown) or antiproliferative effects,impaired
